Earlier results as cited in patent publication US10954181B2, “Process for selectively recovering a phenolic compound from feedstock comprising bio-crude and/or bio-oil” (Research Triangle Institute, priority 2018, dated 2021).

conditions: 25° C., in water; phenolic compounds present in biocrude

| pKa at 25° C. (in water) | Compound |
| --- | --- |
| 10.59 | C=CCc1cc(C)ccc1O [2-allyl-4-methylphenol] |
| 10.27 | CCc1ccccc1O [2-ethylphenol] |
| 10.38 | Cc1cc(C)cc(O)c1 [3,5-dimethylphenol] |
| 9.9 | CCc1cccc(O)c1 [3-ethylphenol] |
| 9.91 | Cc1ccc(O)c(O)c1 [4-methylcatechol] |
| 9.98 | CCCc1ccc(O)cc1 [4-propylphenol] |
| 10.3 | CCc1ccc(O)c(OC)c1 [Ethylguaiacol] |
| 9.98 | COc1ccccc1O [Guaiacol] |
| 10.16 | O=C(CO)c1ccccc1 [Hydroxyacetophenone] |

The remaining lines, values behind:

| Compound | pKa at 25° C. (in water) |
| --- | --- |
| Cc1cccc(O)c1C [2,3-dimethylphenol] | 10.42 |
| Cc1cc(C)c(O)cc1C [2,4,5-trimethylphenol] | 10.57 |
| Cc1cc(C)c(O)c(C)c1 [2,4,6-trimethylphenol] | 10.88 |
| Cc1ccc(O)c(C)c1 [2,4-dimethylphneol] | 10.6 |
| Cc1cccc(C)c1O [2,6-dimethylphenol] | 10.66 |
| C=CCc1ccc(O)c(OC)c1 [Eugenol] | 10.19 |
| COc1cc(CC(C)=O)ccc1O [Guaiacylacetone] | 9.88 |
| COc1cc(CC(=O)O)ccc1O [Homovanillic acid] | 4.36 |
| CCCc1ccc(O)c(OC)c1 [Propylguaiacol (Dihydroeugenol), Propylguaiacol] | 10.29 |
| Benzenediol (catechol) | 9.96 |

same assay, conditions: Table 1, chemical information of targeted methoxyphenols

| pKa | Compound |
| --- | --- |
| 10.3 | CCc1ccc(O)c(OC)c1 [Ethylguaiacol] |
| 9.98 | COc1ccccc1O [Guaiacol] |

| Compound | pKa |
| --- | --- |
| CCCc1ccc(O)c(OC)c1 [Propylguaiacol (Dihydroeugenol), Propylguaiacol] | 10.29 |
